Test results: US20090258045A1, “[…] ANTIMICROBIAL PEPTIDES” (Massachusetts Institute of Technology, priority 2008, published 2009)

Assays:
S. aureus [1] = conditions: free Ponericin; cited from earlier work
S. aureus [2] = assay: Staphyloccocus aureus macrodilution assay; assay type: cell-based, Staphylococcus aureus
Procedure: Staphyloccocus aureus macrodilution assays. All liquid assays were performed in cation-adjusted Mueller Hinton Broth II (CMHB). Qualitative assays were performed following standard macrodilution methods as outlined by the National Committee on Clinical Laboratory Standards (Standards, N. C. f. C. L. Journal, 1999, Approved standard M26-A) with a challenge of 10^5 CFU/mL. For assays involving co-incubation with films deposited on silicon, 24-well plates were used, with 0.5 mL of liquid culture per well. Briefly, each square-cut silicon substrate (1.0 cm×1.0 cm), either bare or coated depending on the test group, was placed flat in the center of a well in a 24-well plate, polished side up. Each well was then filled with 0.50 mL of S. aureus in exponential growth phase at 10^5 CFU/mL in CMHB, completely immersing the substrate. Quantitative assays were done in 96-well plates with 150 μL of liquid culture per well, with 135 μL of test media and 15 μL of inoculation culture at 10^6 CFU/mL in CMHB. All test media were sterile-filtered through 0.2 μm membranes prior to use. […] Cell density was read at OD 600 nm in a BioTek® PowerWave™ XS Microplate Spectrophotometer with accompanying Gen5 program Version 1.00.14. […]
Antimicrobial activity of Ponericin as released from LbL assemblies. In vitro activity of Ponericin, both in dipping solution and as released from films, were assessed against S. aureus. […]

Ponericin G1
reported MIC (S. aureus [1]): 4 to 8 µg/mL | concentration needed to inhibit S. aureus proliferation (S. aureus [2]; dipping solution: free Ponericin in 0.1M sodium acetate (FIG. 7A)): 11 to 22 µg/mL | concentration needed to inhibit S. aureus proliferation (S. aureus [2]; film-released: elution buffer of [(Poly 1/HA)(Pon/HA)]100 (FIG. 7B)): 11 to 22 µg/mL
